Literature values as cited in US20030060423A1, “Co-therapy for the treatment of dementia and associated behavioral manifestations comprising anticonvulsant derivatives and acetylcholinesterase inhibitors” (priority 2001, published 2003).

Columns and labels:
[1] = tested on: simple and complex partial seizures and secondarily generalized seizures; conditions: clinical trials, adjunctive therapy or monotherapy
seizures = conditions: several rodent models of epilepsy
kindled epilepsy = conditions: animal model of kindled epilepsy
focal ischemia = conditions: used 2 hours after MCA embolization, rat
[2] = tested on: neuronal damage following global ischemia; conditions: gerbils
attention, cognition = conditions: some individuals
[3] = tested on: behavioral and psychiatric symptoms of AD; conditions: in vivo

| Structure (SMILES) | efficacy in treating simple and complex partial seizures and secondarily generalized seizures [1] | block of seizures (seizures) | block of seizures (kindled epilepsy) | neuroprotective effect (focal ischemia) | neuroprotective effect against neuronal damage [2] | effect on attention (attention, cognition) | modulation of nicotinic receptors (nicotinic receptors) | benefit on behavioral and psychiatric symptoms of AD [3] |
| --- | --- | --- | --- | --- | --- | --- | --- | --- |
| CC1(C)O[C@@H]2[C@@H](CO[C@@]3(COS(N)(=O)=O)OC(C)(C)O[C@@H]23)O1 [topiramate, 2,3:4,5-bis-O-(1-methylethylidene)-β-D-fructopyranose sulfamate] | effective as adjunctive therapy or as monotherapy | effectively block seizures | effectively block seizures | dose- and use-dependent neuroprotective effect | neuroprotective effect | may impair attention |  |  |
| COc1ccc2c3c1O[C@H]1C[C@@H](O)C=C[C@@]31CCN(C)C2 [galantamine, (4aS,6R,8aS)-4a,5,9,10,11,12-hexahydro-3-methoxy-11-methyl-6H-benzofuro[3a,3,2-ef][2]benzazepin-6-ol] |  |  |  |  |  |  | allosteric modulation of nicotinic receptors | benefits on the behavioral and psychiatric symptoms of AD |
